Assay results as given in patent publication US20180333382A1, “PHARMACEUTICAL COMPOSITIONS COMPRISING DGLA AND USE OF SAME” (DS Biopharma Limited, priority 2017, published 2018).

Tested on: patients with moderate to severe atopic dermatitis
Assay: Phase II study of oral DS107G vs placebo: IGA, EASI, SCORAD, pruritus VAS, BSA, POEM, DLQI
Assay type: in vivo, human
Set-up: key to EASI, Actual, Median / EASI, Actual, Mean: EASI composite score, range 0-72
Conditions: for Percentage Change of BSA Levels From Baseline, Mean / Percentage Change of DLQI Scores From Baseline, Mean / Percentage Change of EASI Scores From Baseline, Mean / Percentage Change of IGA Scores From Baseline, Mean / Percentage Change of POEM Scores From Baseline, Mean / Percentage Change of SCORAD Levels From Baseline, Mean / Percentage Change of VAS Scores From Baseline, Mean: ITT Population
Method: A randomized, double-blind, placebo-controlled, phase II study was performed to assess the efficacy and safety of orally administered DS107G (DGLA) to patients with moderate to severe atopic dermatitis. The primary objective of the study was to compare the efficacy of orally administered DS107G capsules, versus placebo, in the treatment of adult patients with moderate to severe atopic dermatitis. The secondary objective was to assess the safety of orally administered DS107G capsules, versus placebo, in adult patients with moderate to severe atopic dermatitis. The primary study endpoint was the proportion of patients achieving an IGA (Investigator Global Assessment) of 0 (clear) or 1 (almost clear) and a decrease of at least 2 points in IGA at week 8. Secondary study endpoints included:
Approximately 100 patients with moderate to severe atopic dermatitis were included in this multicenter, double-blind, placebo controlled, phase IIa study. All subjects signed an informed consent and underwent screening for study eligibility. Subjects were randomized (1:1) at baseline visit to either receive oral DS107G 2 g or placebo, once daily for 8 weeks in a fasting state.
Subjects visited the clinic on 6 occasions: at screening, baseline, week 2, week 4, week 8 (end of treatment/early termination) and week 10 (follow-up). All subjects exited the study at the week 10 visit. The primary efficacy variable was the proportion of patients achieving an IGA of 0 (clear) or 1 (almost clear), and a decrease of at least 2 points in IGA at week 8. Secondary efficacy variables included: IGA at other visits, pruritus (obtained from the SCORAD visual analog scale), EASI, BSA, POEM, DLQI, SCORAD and TEWL (for selected sites only). Safety was assessed through adverse events, physical examination, vital signs and safety laboratory tests (including pregnancy tests for women of childbearing potential). Pharmacokinetic samples were obtained at Baseline (Day 0), week 4 and week 8 visits in order to measure total and free DGLA plasma trough levels. Separate plasma samples were retained for later analysis of total fatty acid profile and interleukin profile.
The EASI is a composite score ranging from 0-72 that takes into account the degree of erythema, induration/papulation, excoriation, and lichenification (each scored from 0 to 3 separately) for each of four body regions, with adjustment for the percent of BSA involved for each body region and for the proportion of the body region to the whole body. A detailed procedure of EASI score calculation is provided below.
SCORAD is calculated as follows: Six items (erythema, edema/papulation, oozing/crusts, excoriation, lichenification, and dryness) are selected to evaluate the AD severity. The intensity of each item is graded using a 4-point scale: • 0=No symptoms • 1=Mild • 2=Moderate • 3=Severe
Investigator's global assessment is determined as follows:
Body Surface Area (BSA). The overall BSA affected by AD will be evaluated (from 0 to 100%) at each visit. One patient's palm represents 1% of his/her total BSA. For all study visits, except at screening, the BSA of involved skin will be measured with the SCORAD measurement and evaluated as a separate endpoint.
The Patient-Oriented Eczema Measure (POEM) is determined using the following questionnaire:
The Dermatology Life Quality Index (DLQI) is determined using the following questionnaire:
Subjects who fulfilled all the inclusion and none of the exclusion criteria were accepted in the study. Each subject read and signed an informed consent form prior to any screening procedures being performed. This study involved a comparison of DS107G (DGLA) with placebo, administered orally once daily upon waking for a total duration of 8 weeks. Subjects were randomized to one of the two treatment groups in a 1:1 ratio:
The Investigator's Global Assessment (IGA) of Disease Severity was assessed at each visit. The IGA is a global assessment of the current state of the disease. […]

[1] = DS107 Phase 2a I.T.T. population, daily, 8 weeks
[2] = Table 9A: title Week 4, head Week 8/ET, n=34
[3] = Table 9A: title Week 4, head Week 8/ET, n=35
[4] = Week 8, ITT total population, N=51
[5] = Week 8, ITT, Moderate at baseline
[6] = Week 8, ITT, Very Severe/Severe at baseline
[7] = Week 8/ET, DS107G 2 g once daily, n=35
[8] = total study population, oral, once daily, 8 weeks

`CCCCC/C=C\C/C=C\C/C=C\CCCCCCC(=O)O` [DS107G, Dihomo gamma linolenic acid] was tested, and the “patients classified as Responders (IGA 0 or 1 at Week 8, 2-point decrease)” value (African America patients) was 56%, the “patients classified as Responders (IGA 0 or 1 at Week 8, 2-point decrease)” value (Caucasian patients) was 7% and the “BSA Change from Baseline” value [1] was −38%. For the same compound, the “EASI Percentage Change from Baseline” value [1] was −46%, the “EASI-50 (%)” value [1] was 57% and the “EASI-75 (%)” value [1] was 37%. The “IGA responder (%)” value [1] was 21%, the “Pruritus Percentage Change from Baseline” value [1] was −41% and the “Percentage Change of BSA Levels From Baseline, Mean” value (Week 2) was −6.3%. For the same compound, the “Percentage Change of DLQI Scores From Baseline, Mean” value (Week 2) was −29.5%, the “Percentage Change of EASI Scores From Baseline, Mean” value (Week 2) was −15.0% and the “Percentage Change of IGA Scores From Baseline, Mean” value (Week 2) was −11.7%. For the same compound, the “Percentage Change of POEM Scores From Baseline, Mean” value (Week 2) was −30.2%, the “Percentage Change of SCORAD Levels From Baseline, Mean” value (Week 2) was −12.0% and the “Percentage Change of VAS Scores From Baseline, Mean” value (Week 2) was −20.9%. The “Percentage Change of BSA Levels From Baseline, Mean” value (Week 4) was −21.9%, the “Percentage Change of DLQI Scores From Baseline, Mean” value (Week 4) was −50.3% and the “Percentage Change of EASI Scores From Baseline, Mean” value (Week 4) was −37.7%. For the same compound, the “Percentage Change of IGA Scores From Baseline, Mean” value (Week 4) was −25.7%, the “Percentage Change of POEM Scores From Baseline, Mean” value (Week 4) was −41.8% and the “Percentage Change of SCORAD Levels From Baseline, Mean” value (Week 4) was −28.8%. The “Percentage Change of VAS Scores From Baseline, Mean” value (Week 4) was −39.5%, the “Percentage Change of BSA Levels From Baseline, Mean” value (Week 8) was −38.2% and the “Percentage Change of DLQI Scores From Baseline, Mean” value (Week 8) was −43.2%. For the same compound, the “Percentage Change of EASI Scores From Baseline, Mean” value (Week 8) was −45.6%, the “Percentage Change of IGA Scores From Baseline, Mean” value (Week 8) was −38.4% and the “Percentage Change of POEM Scores From Baseline, Mean” value (Week 8) was −37.2%. For the same compound, the “Percentage Change of SCORAD Levels From Baseline, Mean” value (Week 8) was −36.1%, the “Percentage Change of VAS Scores From Baseline, Mean” value (Week 8) was −41.0% and the “Percentage Change of BSA Levels From Baseline, Mean” value (Week 10) was −37.7%. For the same compound, the “Percentage Change of DLQI Scores From Baseline, Mean” value (Week 10) was −53.6%, the “Percentage Change of EASI Scores From Baseline, Mean” value (Week 10) was −49.5% and the “Percentage Change of IGA Scores From Baseline, Mean” value (Week 10) was −37.5%. For the same compound, the “Percentage Change of POEM Scores From Baseline, Mean” value (Week 10) was −43.4%, the “Percentage Change of SCORAD Levels From Baseline, Mean” value (Week 10) was −40.5% and the “Percentage Change of VAS Scores From Baseline, Mean” value (Week 10) was −44.2%. The “primary end point (two point drop in IGA and end of treatment IGA of 0 or 1) vs placebo” value (ITT analysis, p=0.057) was “clinically significant trend”, the “visual analog scale of pruritus, Change from baseline, LSMEANS” value [2] was −2.1 and the “visual analog scale of pruritus, Change from baseline, Mean” value [2] was −2.8. For the same compound, the “visual analog scale of pruritus, Change from baseline, Median” value [2] was −2.0, the “visual analog scale of pruritus, Percent Change from Baseline, Mean” value [2] was −41.0% and the “visual analog scale of pruritus, Percent Change from Baseline, Median” value [2] was −35.3%. The “visual analog scale of pruritus, Actual, Mean” value [3] was 4.6, the “visual analog scale of pruritus, Actual, Median” value [3] was 4.0 and the “visual analog scale of pruritus, Change from baseline, LSMEANS” value (Table 9B: Week 8/ET, n=34) was −2.1. For the same compound, the “visual analog scale of pruritus, Change from baseline, Mean” value (Table 9B: Week 8/ET, n=34) was −2.8, the “visual analog scale of pruritus, Change from baseline, Median” value (Table 9B: Week 8/ET, n=34) was −2.0 and the “visual analog scale of pruritus, Percent Change from Baseline, Mean” value (Table 9B: Week 8/ET, n=34) was −41.0%. For the same compound, the “visual analog scale of pruritus, Percent Change from Baseline, Median” value (Table 9B: Week 8/ET, n=34) was −35.3%, the “visual analog scale of pruritus, Actual, Mean” value (Table 9B: Week 8/ET, n=35) was 4.6 and the “visual analog scale of pruritus, Actual, Median” value (Table 9B: Week 8/ET, n=35) was 4.0. The “IGA score 0—Clear” value [4] was 4 ( 7.8) n (%), the “IGA score 1—Almost Clear” value [4] was 7 ( 13.7) n (%) and the “IGA score 2—Mild” value [4] was 9 ( 17.6) n (%). For the same compound, the “IGA score 3—Moderate” value [4] was 10 ( 19.6) n (%), the “IGA score 4—Severe” value [4] was 4 ( 7.8) n (%) and the “IGA score 5—Very Severe” value [4] was 1 ( 2.0) n (%). For the same compound, the Non-Responders [4] was 37 ( 72.5) n (%), the “Responders (decrease of at least 2 points in IGA score at Week 8)” value [4] was 14 ( 27.5) n (%) and the “IGA score 0—Clear” value [5] was 4 (13.8) n (%). For the same compound, the “IGA score 1—Almost Clear” value [5] was 4 (13.8) n (%), the “IGA score 2—Mild” value [5] was 6 (20.7) n (%) and the “IGA score 3—Moderate” value [5] was 4 (13.8) n (%). For the same compound, the “IGA score 4—Severe” value [5] was 1 (3.4) n (%), the “IGA score 5—Very Severe” value [5] was 0 (0.0) n (%) and the Non-Responders [5] was 21 (72.4) n (%). The Responders [5] was 8 (27.6) n (%), the “IGA score 0—Clear” value [6] was 0 (0.0) n (%) and the “IGA score 1—Almost Clear” value [6] was 3 (13.6) n (%). For the same compound, the “IGA score 2—Mild” value [6] was 3 (13.6) n (%), the “IGA score 3—Moderate” value [6] was 6 (27.3) n (%) and the “IGA score 4—Severe” value [6] was 3 (13.6) n (%). The “IGA score 5—Very Severe” value [6] was 1 (4.5) n (%), the Non-Responders [6] was 16 (72.7) n (%) and the Responders [6] was 6 (27.3) n (%). The “EASI, Actual, Mean” value [7] was 9.3, the “EASI, Actual, Median” value [7] was 7.4 and the “EASI, Change from baseline, LSMEANS (ANCOVA)” value [7] was −8.0. The “EASI, Change from baseline, Mean” value [7] was −9.4, the “EASI, Change from baseline, Median” value [7] was −8.0 and the “EASI, Percent Change from Baseline, Mean” value [7] was −45.6%. The “EASI, Percent Change from Baseline, Median” value [7] was −62.7%, the “SCORAD, Change from baseline, LSMEANS” value (Week 8/ET, n=34) was −18.7 and the “SCORAD, Change from baseline, Mean” value (Week 8/ET, n=34) was −21.1. The “SCORAD, Change from baseline, Median” value (Week 8/ET, n=34) was −21.2, the “SCORAD, Percent Change from Baseline, Mean” value (Week 8/ET, n=34) was −36.1% and the “SCORAD, Percent Change from Baseline, Median” value (Week 8/ET, n=34) was −43.4%. The “SCORAD, Actual, Mean” value (Week 8/ET, n=35) was 35.9, the “SCORAD, Actual, Median” value (Week 8/ET, n=35) was 28.6 and the “body surface area affected by atopic dermatitis, Actual, Mean” value (Week 8/ET, n=35) was 17.6. The “body surface area affected by atopic dermatitis, Actual, Median” value (Week 8/ET, n=35) was 12.0, the “body surface area affected by atopic dermatitis, Change from baseline, LSMEANS” value (Week 8/ET, n=35) was −8.9 and the “body surface area affected by atopic dermatitis, Change from baseline, Mean” value (Week 8/ET, n=35) was −9.6. For the same compound, the “body surface area affected by atopic dermatitis, Change from baseline, Median” value (Week 8/ET, n=35) was −8.0, the “body surface area affected by atopic dermatitis, Percent Change from Baseline, Mean” value (Week 8/ET, n=35) was −38.2% and the “body surface area affected by atopic dermatitis, Percent Change from Baseline, Median” value (Week 8/ET, n=35) was −50.0%. For the same compound, the “response rate in subjects having low baseline eosinophil counts” value (in vivo) was “higher response rate”, the “primary end point (two point drop in IGA and end of treatment IGA of 0 or 1) vs placebo” value (moderate patient subgroup (n=67), p=0.036) was “statistically significant improvement” and the “EASI (% decrease)” value [8] was 46%. For the same compound, the “IGA responders (%)” value [8] was 22%, the “Pruritus delta (as measured by VAS)” value [8] was 41% and the “Pruritus score decrease (as measured by VAS)” value [8] was “c. (2.8)”. The “SCORAD (% decrease)” value [8] was 36% and the “pruritus score [visual analog scale] vs placebo” value (within four weeks of dosing, p=0.015) was “statistically significant reduction of itch”.
